Target: T1, bacteriophage T4 DNA polymerase (Enterobacteria phage T4, UniProt P04415)
T1 construct: made in house
T1 sequence (P04415 1-898): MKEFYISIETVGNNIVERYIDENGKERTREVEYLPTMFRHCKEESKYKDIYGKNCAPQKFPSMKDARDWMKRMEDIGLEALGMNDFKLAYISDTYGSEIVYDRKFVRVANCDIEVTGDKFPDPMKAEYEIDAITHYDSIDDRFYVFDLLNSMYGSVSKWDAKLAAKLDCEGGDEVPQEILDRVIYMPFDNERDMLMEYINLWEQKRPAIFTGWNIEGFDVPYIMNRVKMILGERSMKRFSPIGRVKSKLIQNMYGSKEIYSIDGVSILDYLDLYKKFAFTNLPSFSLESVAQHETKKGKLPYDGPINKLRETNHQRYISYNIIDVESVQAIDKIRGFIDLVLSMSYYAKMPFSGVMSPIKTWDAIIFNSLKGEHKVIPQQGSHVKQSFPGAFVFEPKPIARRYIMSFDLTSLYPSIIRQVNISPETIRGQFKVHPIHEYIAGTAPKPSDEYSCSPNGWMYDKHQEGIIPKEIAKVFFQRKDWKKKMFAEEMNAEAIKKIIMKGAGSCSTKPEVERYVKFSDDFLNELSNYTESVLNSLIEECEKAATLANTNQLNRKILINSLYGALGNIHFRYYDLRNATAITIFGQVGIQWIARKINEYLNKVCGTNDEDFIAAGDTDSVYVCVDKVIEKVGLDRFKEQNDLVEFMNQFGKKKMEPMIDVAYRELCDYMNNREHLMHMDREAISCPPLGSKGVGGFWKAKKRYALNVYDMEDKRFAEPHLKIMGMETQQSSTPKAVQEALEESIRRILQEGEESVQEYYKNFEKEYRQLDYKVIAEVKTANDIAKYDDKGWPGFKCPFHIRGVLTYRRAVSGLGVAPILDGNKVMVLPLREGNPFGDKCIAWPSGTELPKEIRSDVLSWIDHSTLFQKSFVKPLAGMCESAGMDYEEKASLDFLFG
Experiment: Counter-screen against bacteriophage T4 DNA polymerase
Type: biochemical
Conditions: for % inhibition T4 10' 2.5 / % inhibition T4 10' 5 / % inhibition T4 10' 10 / % inhibition T4 10' 20 / % inhibition T4 10' 40 / % inhibition T4 10' 80: read at 10'; for % inhibition T4 70' 2.5 / % inhibition T4 70' 5 / % inhibition T4 70' 10 / % inhibition T4 70' 20 / % inhibition T4 70' 40 / % inhibition T4 70' 80: read at 70'; for % inhibition T4 130' 2.5 / % inhibition T4 130' 5 / % inhibition T4 130' 10 / % inhibition T4 130' 20 / % inhibition T4 130' 40 / % inhibition T4 130' 80: read at 130'; for % inhibition T4 40' 2.5 / % inhibition T4 40' 5 / % inhibition T4 40' 10 / % inhibition T4 40' 20 / % inhibition T4 40' 40 / % inhibition T4 40' 80: read at 40'; for % inhibition T4 90' 2.5 / % inhibition T4 90' 5 / % inhibition T4 90' 10 / % inhibition T4 90' 20 / % inhibition T4 90' 40 / % inhibition T4 90' 80: read at 90'; for % inhibition T4 180' 2.5 / % inhibition T4 180' 5 / % inhibition T4 180' 10 / % inhibition T4 180' 20 / % inhibition T4 180' 40 / % inhibition T4 180' 80: read at 180'
Method: Codon-optimized, exonuclease-deficient Pf-apPOL was overexpressed in E. coli BL21 (DE3) and purified as described. The protein was dialysed against two, 1-liter changes of 20 mM Tris-HCl (pH 8.0), 400 mM NaCl, and 20% glycerol. Plasmodium bergei and Babesia bovis apPOLs (Pb-apPOL and Bb-apPOL, respectively) were codon-optimized, expressed, and purified as for Pf-apPOL[15]. Bacteriophage T4 DNA polymerase was purified as described. The DNA oligonucleotides used to make the high-throughput substrate were obtained from Integrated DNA Technologies. Deoxynucleotides were purchased from Strategene. All other materials came from Fisher Scientific.
Each compound was tested in a dose-response format to determine IC50 values. […] T4 DNA polymerase can be produced in large quantities, and is in the same family (B-family) as the replicative human DNA polymerases (α, δ, and ε)[20].

For `Cc1ccc(-n2nnc(C(=O)O)c2-c2ccccn2)c(F)c1` [Molecule 54, Cc1ccc(c(c1)F)n1nnc(c1c1ccccn1)C(=O)O], the “% inhibition T4 10'” value (DRC-2, concentration 2.5) was 18%, the “% inhibition T4 10'” value (DRC-2, concentration 5) was 23% and the “% inhibition T4 10'” value (DRC-2, concentration 10) was 30%. For the same compound, the “% inhibition T4 10'” value (DRC-2, concentration 40) was 27%, the “% inhibition T4 10'” value (DRC-2, concentration 80) was 24% and the “% inhibition T4 40'” value (DRC-2, concentration 2.5) was 18%. The “% inhibition T4 40'” value (DRC-2, concentration 5) was 23%, the “% inhibition T4 40'” value (DRC-2, concentration 10) was 30% and the “% inhibition T4 40'” value (DRC-2, concentration 40) was 27%. For the same compound, the “% inhibition T4 40'” value (DRC-2, concentration 80) was 24%, the “% inhibition T4 90'” value (DRC-2, concentration 2.5) was 17% and the “% inhibition T4 90'” value (DRC-2, concentration 10) was 27%. The “% inhibition T4 90'” value (DRC-2, concentration 20) was 22%, the “% inhibition T4 90'” value (DRC-2, concentration 40) was 23% and the “% inhibition T4 90'” value (DRC-2, concentration 80) was 22%. For the same compound, the “% inhibition T4 180'” value (DRC-2, concentration 10) was 22%, the “% inhibition T4 180'” value (DRC-2, concentration 20) was 17% and the “% inhibition T4 180'” value (DRC-2, concentration 40) was 20%. The “% inhibition T4 180'” value (DRC-2, concentration 80) was 20%.

In the case of `CC(=O)Nc1cc(C(=O)c2cccs2)nn(-c2ccc(Cl)cc2)c1=O` [KU0267905], the “% inhibition T4 10' 2.5” value (DRC-1, concentration 2.5) is reported as -2.1822%, the “% inhibition T4 10' 5” value (DRC-1, concentration 5) is reported as -1.511% and the “% inhibition T4 10' 10” value (DRC-1, concentration 10) is reported as 8.968%. The “% inhibition T4 10' 20” value (DRC-1, concentration 20) was 21.6077%, the “% inhibition T4 10' 40” value (DRC-1, concentration 40) was 20.7445% and the “% inhibition T4 10' 80” value (DRC-1, concentration 80) was 21.8297%. The “% inhibition T4 70' 2.5” value (DRC-1, concentration 2.5) was -0.6527%, the “% inhibition T4 70' 5” value (DRC-1, concentration 5) was -1.806% and the “% inhibition T4 70' 10” value (DRC-1, concentration 10) was 6.193%. For the same compound, the “% inhibition T4 70' 20” value (DRC-1, concentration 20) was 12.7493%, the “% inhibition T4 70' 40” value (DRC-1, concentration 40) was 13.4043% and the “% inhibition T4 70' 80” value (DRC-1, concentration 80) was 12.69%. For the same compound, the “% inhibition T4 130' 2.5” value (DRC-1, concentration 2.5) was -1.3658%, the “% inhibition T4 130' 5” value (DRC-1, concentration 5) was -4.349% and the “% inhibition T4 130' 10” value (DRC-1, concentration 10) was 2.501%. The “% inhibition T4 130' 20” value (DRC-1, concentration 20) was 8.205%, the “% inhibition T4 130' 40” value (DRC-1, concentration 40) was 8.984% and the “% inhibition T4 130' 80” value (DRC-1, concentration 80) was 8.594%. For the same compound, the “% inhibition T4 10' 2.5” value (DRC-2, concentration 2.5) was 8%, the “% inhibition T4 10' 5” value (DRC-2, concentration 5) was 8.43% and the “% inhibition T4 10' 10” value (DRC-2, concentration 10) was 8%. The “% inhibition T4 10' 20” value (DRC-2, concentration 20) was 1.18%, the “% inhibition T4 10' 40” value (DRC-2, concentration 40) was 7% and the “% inhibition T4 10' 80” value (DRC-2, concentration 80) was 2.64%. The “% inhibition T4 40' 2.5” value (DRC-2, concentration 2.5) was 7%, the “% inhibition T4 40' 5” value (DRC-2, concentration 5) was 7.5% and the “% inhibition T4 40' 10” value (DRC-2, concentration 10) was 6.35%. The “% inhibition T4 40' 20” value (DRC-2, concentration 20) was 0.171%, the “% inhibition T4 40' 40” value (DRC-2, concentration 40) was 4% and the “% inhibition T4 40' 80” value (DRC-2, concentration 80) was 0.303%. For the same compound, the “% inhibition T4 90' 2.5” value (DRC-2, concentration 2.5) was 5%, the “% inhibition T4 90' 5” value (DRC-2, concentration 5) was 5% and the “% inhibition T4 90' 10” value (DRC-2, concentration 10) was 4%. The “% inhibition T4 90' 20” value (DRC-2, concentration 20) was -2%, the “% inhibition T4 90' 40” value (DRC-2, concentration 40) was 2.26% and the “% inhibition T4 90' 80” value (DRC-2, concentration 80) was -0.743%. For the same compound, the “% inhibition T4 180' 2.5” value (DRC-2, concentration 2.5) was 0.767%, the “% inhibition T4 180' 5” value (DRC-2, concentration 5) was 0.673% and the “% inhibition T4 180' 10” value (DRC-2, concentration 10) was 0.174%. The “% inhibition T4 180' 20” value (DRC-2, concentration 20) was -8%, the “% inhibition T4 180' 40” value (DRC-2, concentration 40) was -2.82% and the “% inhibition T4 180' 80” value (DRC-2, concentration 80) was -3.56%.

`CCCc1ccc(Oc2coc3cc(OC)ccc3c2=O)cc1` [KU0193249] was tested, and the “% inhibition T4 10' 2.5” value (DRC-1, concentration 2.5) was 1.7455%, the “% inhibition T4 10' 5” value (DRC-1, concentration 5) was -0.5189% and the “% inhibition T4 10' 10” value (DRC-1, concentration 10) was 7.431%. For the same compound, the “% inhibition T4 10' 20” value (DRC-1, concentration 20) was -2.718%, the “% inhibition T4 10' 40” value (DRC-1, concentration 40) was 4.024% and the “% inhibition T4 10' 80” value (DRC-1, concentration 80) was -14.455%. The “% inhibition T4 70' 2.5” value (DRC-1, concentration 2.5) was 0.7287%, the “% inhibition T4 70' 5” value (DRC-1, concentration 5) was -0.7228% and the “% inhibition T4 70' 10” value (DRC-1, concentration 10) was 6.283%. The “% inhibition T4 70' 20” value (DRC-1, concentration 20) was -2.8267%, the “% inhibition T4 70' 40” value (DRC-1, concentration 40) was 4.61% and the “% inhibition T4 70' 80” value (DRC-1, concentration 80) was -10.3998%. The “% inhibition T4 130' 2.5” value (DRC-1, concentration 2.5) was -0.4639%, the “% inhibition T4 130' 5” value (DRC-1, concentration 5) was -1.759% and the “% inhibition T4 130' 10” value (DRC-1, concentration 10) was 5.142%. For the same compound, the “% inhibition T4 130' 20” value (DRC-1, concentration 20) was -2.066%, the “% inhibition T4 130' 40” value (DRC-1, concentration 40) was 4.723% and the “% inhibition T4 130' 80” value (DRC-1, concentration 80) was -9.229%. For the same compound, the “% inhibition T4 10' 2.5” value (DRC-2, concentration 2.5) was 9%, the “% inhibition T4 10' 5” value (DRC-2, concentration 5) was -2.34% and the “% inhibition T4 10' 10” value (DRC-2, concentration 10) was 0.369%. For the same compound, the “% inhibition T4 10' 20” value (DRC-2, concentration 20) was -9%, the “% inhibition T4 10' 40” value (DRC-2, concentration 40) was -1.47% and the “% inhibition T4 10' 80” value (DRC-2, concentration 80) was -4.57%. The “% inhibition T4 40' 2.5” value (DRC-2, concentration 2.5) was 9%, the “% inhibition T4 40' 5” value (DRC-2, concentration 5) was -2.34% and the “% inhibition T4 40' 10” value (DRC-2, concentration 10) was 0.369%. For the same compound, the “% inhibition T4 40' 20” value (DRC-2, concentration 20) was -9%, the “% inhibition T4 40' 40” value (DRC-2, concentration 40) was -1.47% and the “% inhibition T4 40' 80” value (DRC-2, concentration 80) was -4.57%. For the same compound, the “% inhibition T4 90' 2.5” value (DRC-2, concentration 2.5) was 8%, the “% inhibition T4 90' 5” value (DRC-2, concentration 5) was -2.2% and the “% inhibition T4 90' 10” value (DRC-2, concentration 10) was -0.214%. For the same compound, the “% inhibition T4 90' 20” value (DRC-2, concentration 20) was -7%, the “% inhibition T4 90' 40” value (DRC-2, concentration 40) was 0.714% and the “% inhibition T4 90' 80” value (DRC-2, concentration 80) was -1.8%. For the same compound, the “% inhibition T4 180' 2.5” value (DRC-2, concentration 2.5) was 1.43%, the “% inhibition T4 180' 5” value (DRC-2, concentration 5) was -7% and the “% inhibition T4 180' 10” value (DRC-2, concentration 10) was -5%. The “% inhibition T4 180' 20” value (DRC-2, concentration 20) was -10%, the “% inhibition T4 180' 40” value (DRC-2, concentration 40) was -1.19% and the “% inhibition T4 180' 80” value (DRC-2, concentration 80) was -4%.

Reference: publication PMC9090415, “Discovery of small molecule inhibitors of Plasmodium falciparum apicoplast DNA polymerase” (Journal of Enzyme Inhibition and Medicinal Chemistry, 2022)
